Measurements from patent US20100151004A1, “MODULATION OF DRUG SENSITIVITY” (UNIVERSITY OF MEDICINE AND DENTISTRY OF NEW JERSEY, priority 2007, published 2010).
Entries after “also recorded” stand apart in the source; their conditions may differ.

What was measured:
HCT-8/4hFU cells [1] = test: MTS cytotoxicity assay, 4 h bolus drug exposure; type: cell-based, human
Excerpt: Cancer Res 1992 Apr. […] Louis, Mo., USA).

HCT-8/4hFU cells [2] = test: MTS cytotoxicity assay, continuous 5-FU exposure (4 days); type: cell-based, human
Method: Number of viable cells was determined by MTS assay.

HCT-8/4hFU tumor = test: Colorectal cancer xenograft model, tumor volume; type: in vivo, mice; settings: for tumor response (tumor volume): one course, DAC 3×0.5 mg/kg i.p., 5-FU 1×50 mg/kg i.p.; for tumor response (tumor growth): two courses, DAC 3×0.5 mg/kg/course i.p., 5-FU 1×50 mg/kg/course i.p.
Method: (§1) Two independent experiments were performed and animals received either 1 or 2 courses of treatment (1 or 2 weeks) followed by an additional week of observation. […] Prior to the experiment tumors were grounded to a powder in LN2. Following the tumor harvest or if tumor diameter is greater than 1 cm, or greater than 15% weight loss occurred the animals were euthanized. All experiments were performed according to the protocol approved by The Institutional Animal Care and Use Committee at RWJMS. […] Gels were quantitated using ChemiDoc XRS machine and Quantity One 1-D analysis software (BioRad, Hercules, Calif., USA).

HCT-8/P tumor = test: Colorectal cancer xenograft model, tumor volume; type: in vivo, mice
Method: as §1

colorectal cancer = settings: patients, typical clinical response; cited from earlier work
[3] = tested on: UMPK expression in HCT-8/4hFU cells; test: UMPK mRNA (Q-RT-PCR) and protein (Western blotting) after DAC exposure in cultured cells; type: cell-based, human; settings: low-dose DAC for 24 h
Method: (§2) Cells (1-5×10^6) were trypsinized, washed twice with PBS and kept frozen in −80° C. until used. Cell pellets or powdered tumors (vide infra) were thawed and resuspended in 0.5 ml of RIPA buffer (50 mM Tris-HCl buffer pH 7.4, 3 mM sodium fluoride and 4 mM DTT) supplemented with protease inhibitors. Samples were sonicated (2×20 s, 60% power) on ice and centrifuged for 20 min at 20,000 rpm. […] of lysate was loaded onto 10% SDS-PAGE gel and after transfer to nitrocellulose probed with anti-UMPK polyclonal antibody (1:1000) for 2 hours (gift of Dr Y. C. Cheng, Yale University) and secondary ant-rabbit antibody (1:5000) for 1 hour (Sigma St Louis, Mo., USA) or anti-α-tubulin (1:10000) for 1 hour (Sigma, St Louis, Mo., USA) and anti-mouse antibody (1:2000) for 0.5 h (Santa Cruz, Calif., USA) as a control.
(§3) Total RNA was extracted from 1-5×10^6 cells or powdered tumors using Trizol Reagent (Invitrogen, Carlsbad, Calif., USA) and run on 1% folmaldehyde-agarose gel to assess the quality of the RNA. […] Delta delta Ct method was used to calculate relative fold change in mRNA level (Livak K J, Schmittgen T D. Analysis of relative gene expression data using real-time quantitative PCR and the 2(−Delta Delta C(T)) Method. Methods 2001 December; 25(4):402-8). […]

[4] = tested on: UMPK expression in HCT-8/P cells; test: UMPK expression after DAC exposure in cultured cells; type: cell-based, human; settings: low-dose DAC for 24 h
Method: as §2, §3

UMPK in HCT-8/P tumors = test: UMPK mRNA in xenograft tumors after DAC treatment (Q-RT-PCR); type: in vivo, mice; settings: HCT-8/P group
Method: (§4) Total RNA was extracted from 1-5×10^6 cells or powdered tumors using Trizol Reagent (Invitrogen, Carlsbad, Calif., USA) and run on 1% folmaldehyde-agarose gel to assess the quality of the RNA. Gene specific primers and fluorescent-labeled probe (FAM and TAMRA) were designed using Primer Express Software from ABI (Applied Biosystems, Foster City, Calif., USA). 50 ng of RNA was amplified in one-step RT-PCR reaction (Applied Biosystems, Foster City, Calif., USA) using TaqMan Real-Time PCR machine (7000 SDS). 18SrRNA (FAM) (Applied Biosystems, Foster City, Calif., USA) or β-actin (FAM-TAMRA) was used to normalize the results. Delta delta Ct method was used to calculate relative fold change in mRNA level (Livak K J, Schmittgen T D. Analysis of relative gene expression data using real-time quantitative PCR and the 2(−Delta Delta C(T)) Method. Methods 2001 December; 25(4):402-8). The sequence of UMPK forward primer is 5′-AAGAAGGAAAGATTGTACCAGTTGAGA-3′ (SEQ ID NO: 7), reverse primer 5′-GGAAACCCATCAATCAAGAATTTATT-3′ (SEQ ID NO: 8), and probe 5-FAM-AGAGGGAAATGGATCAGACAATGGCTGC-TAMRA-3′ (SEQ ID NO: 9).
(§5) HCT-8/P or HCT-8/4hFU cells (2.5×10^6) were injected subcutaneously into SKID nu/nu mice (Taconic, Germantown, N.Y., USA). When tumors were palpable animals were randomized into 4 groups (5-10 animals per group) and treated with DAC (Tuesday, Wednesday, Thursday, 0.5 mg/kg, i.p.), or 5-FU (Friday, 50 mg/kg, i.p.), or DAC & 5-FU, or PBS as a control. Measurements of tumor size and animal weight were performed every 3-4 days. Two independent experiments were performed and animals received either 1 or 2 courses of treatment (1 or 2 weeks) followed by an additional week of observation. In order to assay UMPK induction in tumors, animals from DAC alone, and DAC & 5-FU groups received additional course of DAC treatment towards the end of experiment. 24 hours after the third dose of DAC was administered animals were anesthetized, and tumors harvested, washed in PBS and flash frozen in LN2. Prior to the experiment tumors were grounded to a powder in LN2. Following the tumor harvest or if tumor diameter is greater than 1 cm, or greater than 15% weight loss occurred the animals were euthanized. All experiments were performed according to the protocol approved by The Institutional Animal Care and Use Committee at RWJMS.

[5] = tested on: UMPK mRNA in HCT-8/4hFU tumors; test: as above; type: in vivo, mice
Method: as §4, §5

[6] = tested on: UMPK promoter and first exon CpG sites in HCT-8/4hFU cells; test: Pyro Q-CpG analysis of methylation; type: cell-based, human; settings: HCT-8/4hFU + 0.5 μM DAC for 24 h
Method: DNA was extracted from tumors or cells using standard phenol-chlorophorm-isoamyl alcohol extraction (Invitrogen, Carlsbad, Calif., USA). 2 μg of sample DNA or 1 μg of control DNA was bisulfite modified using EZ DNA Methylation Kit (Zymo Research, Orange, Calif., USA). 1 ul out of 10 ul of post bisulfite modified DNA was used for PCR. Bisulfite treated fetal cell DNA and in vitro methylated human DNA (Chemicon, Millipore, Billerica, Mass.) were used in the assay development and PCR bias testing. The following reagents were mixed together in preparation for the Pyrosequencing reaction: Streptavidin beads 2 μl, 2× binding buffer 40 μl, PCR product 10 μl, water 28 μl. The assay was performed by EpigenDx (Worcester, Mass., USA) using PSQHS 96 System. Methylation of 42 CpG sites was analyzed.

HCT-8/P cells = test: MTS cytotoxicity assay, 4 h bolus drug exposure
[7] = one course, DAC 3×0.5 mg/kg i.p., 5-FU 1×50 mg/kg i.p.
[8] = two courses, DAC 3×0.5 mg/kg/course i.p., 5-FU 1×50 mg/kg/course i.p.
[9] = DAC 0.0005 μM-0.5 μM, 24 h exposure

For `O=c1[nH]cc(F)c(=O)[nH]1` [5-FU, 5-Fluorouracil], the “fold resistance to bolus 5-FU, HCT-8/4hFU versus HCT-8/P” value (HCT-8/4hFU cells [1]; bolus 4 h exposure, cell viability assay) was 3-4 fold, the “sensitivity to continuous exposure to 5-FU, HCT-8/4hFU versus HCT-8/P” value (HCT-8/4hFU cells [2]) was “equally sensitive” and the “tumor response (tumor volume)” value (HCT-8/4hFU tumor) was “resistant”. The “tumor response (tumor growth)” value (HCT-8/4hFU tumor) was “partial response”, the “tumor response (tumor growth)” value (HCT-8/P tumor; [7]) was “responded” and the “tumor response (tumor growth)” value (HCT-8/P tumor; [8]) was “responded”. For the same compound, the response rate (colorectal cancer) was “less than 30%”.

With `O=c1[nH]c(=O)n([C@@H]2O[C@H](CO)[C@@H](O)[C@H]2O)cc1F` [5-FUR, 5-fluorouridine] the “increase in the IC50 value, HCT-8/4hFU as compared to HCT-8/P cells” value (HCT-8/4hFU cells [1]; 5-FUR 4 h exposure) was at most 10 fold.

For `Nc1ncn([C@H]2C[C@H](O)[C@@H](CO)O2)c(=O)n1` [DAC, 5-Azadeoxycytidine], the “restoration of sensitivity of HCT-8/4hFU cells to that seen in HCT-8/P cells” value (HCT-8/4hFU cells [1]; 0.02 μM DAC 24 h pretreatment) was “able to restore the sensitivity”, the cell kill (HCT-8/4hFU cells [1]; [9]) was “less than 20%” and the “effect of DAC pretreatment on sensitivity to bolus 5-FU” value (HCT-8/4hFU cells [1]; DAC 24 h pretreatment, then 5-FU 4 h) was “makes HCT-8/4hFU cells sensitive”. The “effect of DAC pretreatment on sensitivity to 5-FUR” value (HCT-8/4hFU cells [1]; DAC 24 h pretreatment, then 5-FUR 4 h) was “makes HCT-8/4hFU cells sensitive”, the “tumor response (tumor volume)” value (HCT-8/4hFU tumor) was “resistant” and the “tumor response (tumor growth)” value (HCT-8/4hFU tumor) was “No significant response”. For the same compound, the “tumor response (tumor growth)” value (HCT-8/P tumor; [7]) was “most significant delay in the tumor growth”, the “tumor response (tumor growth)” value (HCT-8/P tumor; [8]) was “most significant effect” and the “UMPK mRNA as well as protein levels” value [3] was “dose dependent increase”. The UMPK expression [4] was “No increase”, the “increase of UMPK after DAC treatment” value (UMPK in HCT-8/P tumors) was “No increase” and the “increase in UMPK mRNA as compared to untreated tumor” value ([5]; after one course of DAC (3×0.5 mg/kg)) was 4 fold. The “increase in UMPK mRNA as compared to untreated tumor” value ([5]; after two and three weeks of DAC treatment) was at most 20 fold, the “average increase of UMPK in tumors of the group of animals” value ([5]; animals of the two-course experiment, relative to untreated HCT-8/4hFU tumors) was 8.5 fold and the “Mean methylation across 36 CpG sites” value [6] was 2.74. For the same compound, the cell kill (HCT-8/P cells; [9]) was “less than 20%” and the “effect of DAC on sensitivity of HCT-8/P cells to 5-FU or 5-FUR” value (HCT-8/P cells; DAC 24 h pretreatment, then 5-FU or 5-FUR 4 h) was “Much less of an effect; also recorded: do not show increased sensitivity”.
